From article PMC4957748, “Development of Novel Erythromycin Derivatives with Inhibitory Activity against Proliferation of Tumor Cells” (PLoS ONE, 2016)

Columns and labels:
[1] = system: oral carcinoma (KB) cells; test: MTT antiproliferative assay, KB; format: cell-based, human; settings: 24 h of drug exposure, mean±SD of 3 experiments
Description: (§1) In vitro antiproliferative activity against three human tumor cell lines, including gastric adenocarcinoma (SGC-7901), oral carcinoma (KB) and fibrosarcoma (HT-1080), was evaluated using the MTT assay with cis-platinum (Cpt) as the positive control.
(§2) The antiproliferative activity of the synthetic compounds was measured by 3-(4, 5- dimethylthiazol-2-yl)-2, 5-diphenyltetrazolium bromide (MTT) assay. Cells were seeded in 96-well plates (Corning, NY, USA) at a density of 8×10^3 per well. After 24 h of incubation, cells were treated with different concentrations (0.1, 0.3, 1, 3 and 10 μg/ml) of the EM-A dimers for the indicated time periods. Afterwards, MTT (Sigma, St. Louis, MO) solution [5.0 mg/ml in phosphate-buffered saline (PBS)] was added (20 μl/well) and incubated for another 4 h at 37°C. The purple formazan crystals were then dissolved in 100 μl dimethyl sulfoxide (DMSO). After 5 min, the plates were read on a plate microreader (TECANSPECTRA, Wetzlar, Germanay) at 490 nm. The IC50 values were obtained using the software of Dose–Effect Analysis with Microcomputers and were defined as concentration of drug causing 50% inhibition in absorbance compared with control cells. Assays were performed in triplicate from three independent experiments.

[2] = system: fibrosarcoma (HT-1080) cells; test: MTT antiproliferative assay, HT-1080; format: cell-based, human; settings: mean±SD of 3 experiments
Description: as §1, §2

[3] = system: gastric adenocarcinoma (SGC-7901) cells; test: MTT antiproliferative assay, SGC-7901; format: cell-based, human; settings: mean±SD of 3 experiments
Description: as §1, §2

[4] = system: normal mouse fibroblast cells (L929); test: MTT assay, toxicity against normal fibroblasts L929; format: cell-based
Description: as §2

[5] = system: hepatocellular carcinoma (HepG-2) cells; test: MTT antiproliferative assay, HepG-2; format: cell-based, human; settings: 24 h of drug exposure, mean±SD of 3 experiments
Description: (§3) All cell lines were purchased from American Type Culture Collection (ATCC, Manassas, VA, USA). Non-small cell lung carcinoma cells (A549), hepatocellular carcinoma cells (HepG-2) and breast carcinoma cells (MCF-7) were cultured in DMEM medium (Sigma, St. Louis, MO, USA), while gastric carcinoma cells (BGC-823), laryngeal carcinoma cells (Hep2), cervical carcinoma cells (HeLa) were cultured in RPMI-1640 medium (Sigma, St. Louis, MO, USA), which were supplemented with 10% fetal bovine serum (FBS; TBD, Tianjin, China) at 37°C in humidified atmosphere with 5% CO2.
as §2, with “The IC50 values were obtained using the software of Dose–Effect Analysis with Microcomputers and were defined as concentration of drug causing 50% inhibition in absorbance compared with control cells. Assays were performed in triplicate from three independent experiments.” left out

[6] = system: cervical carcinoma (HeLa) cells; test: MTT antiproliferative assay, HeLa; format: cell-based, human; settings: 24 h of drug exposure, mean±SD of 3 experiments
Description: as §3
as §2, with “The IC50 values were obtained using the software of Dose–Effect Analysis with Microcomputers and were defined as concentration of drug causing 50% inhibition in absorbance compared with control cells. Assays were performed in triplicate from three independent experiments.” left out

[7] = system: breast carcinoma (MCF-7) cells; test: MTT antiproliferative assay, MCF-7; format: cell-based, human; settings: 24 h of drug exposure, mean±SD of 3 experiments
Description: as §3
as §2, with “The IC50 values were obtained using the software of Dose–Effect Analysis with Microcomputers and were defined as concentration of drug causing 50% inhibition in absorbance compared with control cells. Assays were performed in triplicate from three independent experiments.” left out

[8] = system: laryngeal carcinoma (Hep2) cells; test: MTT antiproliferative assay, Hep2; format: cell-based, human; settings: 24 h of drug exposure, mean±SD of 3 experiments
Description: as §3
as §2, with “The IC50 values were obtained using the software of Dose–Effect Analysis with Microcomputers and were defined as concentration of drug causing 50% inhibition in absorbance compared with control cells. Assays were performed in triplicate from three independent experiments.” left out

[9] = system: non-small cell lung carcinoma (A549) cells; test: MTT antiproliferative assay, A549; format: cell-based, human; settings: 24 h of drug exposure, mean±SD of 3 experiments
Description: as §3
as §2, with “The IC50 values were obtained using the software of Dose–Effect Analysis with Microcomputers and were defined as concentration of drug causing 50% inhibition in absorbance compared with control cells. Assays were performed in triplicate from three independent experiments.” left out

[10] = system: gastric carcinoma (BGC-823) cells; test: MTT antiproliferative assay, BGC-823; format: cell-based, human; settings: 24 h of drug exposure, mean±SD of 3 experiments
Description: as §3
as §2, with “The IC50 values were obtained using the software of Dose–Effect Analysis with Microcomputers and were defined as concentration of drug causing 50% inhibition in absorbance compared with control cells. Assays were performed in triplicate from three independent experiments.” left out

[11] = Homo sapiens, HT-1080, 24 h of drug exposure
[12] = Homo sapiens, SGC-7901, 24 h of drug exposure

IC50 ([1]; Homo sapiens, KB) [µM] | IC50 [2, 11] [µM] | IC50 [3, 12] [µM] | Structure (SMILES) | IC50 ([4]; L929, 24 h of drug exposure) [µM] | IC50 [1] [µM] | IC50 [5] [µM] | IC50 ([2]; 24 h of drug exposure) [µM] | IC50 [6] [µM] | IC50 ([3]; 24 h of drug exposure) [µM] | IC50 [7] [µM] | IC50 [8] [µM] | IC50 [9] [µM] | IC50 ([4]; 24 h of drug exposure) [µM] | IC50 [10] [µM]
3.1 ± 0.3 | 11.9 ± 0.8 | 27.1 ± 2.2 | CCC1OC(=O)C(C)C(O)C(C)C(OC2OC(C)CC(N(C)CC=CCN(C)C3CC(C)OC(OC4C(C)C(OC5CC(C)(OC)C(O)C(C)O5)C(C)C(=O)OC(CC)C(C)(O)C(O)C(C)C(=O)C(C)CC4(C)OC)C3O)C2O)C(C)(OC)CC(C)C(=O)C(C)C(O)C1(C)O (stereo not drawn) [Compound 1i] | > 100 | – | – | – | – | – | – | – | – | – | –
– | – | – | N.N.[Cl][Pt][Cl] [Cpt, cis-platinum] | – | 4.7 ± 0.3 | 4.7 ± 0.4 | 19.7 ± 1.5 | 17.4 ± 1.4 | 4.9 ± 0.4 | 2.9 ± 0.1 | 12.3 ± 1.3 | 5.8 ± 0.2 | 18.5 | 11.8 ± 0.2
26.4 ± 2.4 | 23.7 ± 2.2 | 30.6 ± 2.8 | CCC1OC(=O)C(C)C(O)C(C)C(OC2OC(C)CC(N(C)CC=CCN(C)C3CC(C)OC(OC4C(C)C(OC5CC(C)(OC)C(O)C(C)O5)C(C)C(=O)OC(CC)C(C)(O)C(O)C(C)C(=NO)C(C)CC4(C)OC)C3O)C2O)C(C)(OC)CC(C)C(=NO)C(C)C(O)C1(C)O (stereo not drawn) [Compound 1j] | > 100 | – | – | – | – | – | – | – | – | – | –
